Assay results: US20230183243A1, “HETEROARYL DERIVATIVES AND PHARMACEUTICAL COMPOSITION COMPRISING SAME AS ACTIVE INGREDIENT” (VORONOI INC., priority 2019, published 2023)

Key:
MDA-MB-231 cells = experiment: Inhibition of proliferation of triple-negative breast cancer cells, CellTiter-Glo; format: cell-based; details: Homo sapiens, 120 h; MDA-MB-231, cultured for 5 days
Experimental: Specifically, the following test was performed in order to evaluate the inhibitory activity of the compound according to the present invention against the cell proliferation in triple-negative breast cancer cells (TNBCs).
Cells were seeded in 180 μL of a culture broth at a density of 2,000 to 3,000 cells/well in a white clear bottom 96-well plate (Corning) according to the growth ability of each cell, and then cultured for 24 hours under conditions of 5% CO2 and 37° C. Thereafter, the compound was prepared by diluting a 10 mM stock solution three-fold with 100% DMSO at a total of 12 concentrations so that a peak concentration of the compound was in a range of 10 mM to 0.05 μM, and the diluted compound was then diluted in each cell culture medium so that a final concentration of the compound was in a range of 100 μM to 0.5 nM. 20 μL of a diluted solution diluted with a medium was added to the cell solution in which cells were seeded in the 96-well plate on the previous day so that a final concentration of the diluted solution was in a range of 10 μM to 0.05 nM. Each of the cells was cultured for 5 days. To check cell viability, a mixture provided in a CellTiter-Glo® Luminescent Cell Viability Assay Kit (Promega) was added to each of the cultured cell media, and cultured for another 10 minutes under a condition of 37° C. Then, a degree of luminescence (fluorescence) was measured. A degree of inhibition of the cell growth according to the treatment concentration of each of the compounds was calculated based on the fluorescence of the solvent control cells which were not treated with the compound.

TTK = molecular target: T1, TTK (Homo sapiens, UniProt P33981); experiment: TTK enzyme activity, ADP-Glo kinase assay; format: biochemical; design: purchased SignalChem T20-10G; details: purified human TTK, ATP 10 μM, 25° C., 2 hours
T1 sequence (P33981 1-857): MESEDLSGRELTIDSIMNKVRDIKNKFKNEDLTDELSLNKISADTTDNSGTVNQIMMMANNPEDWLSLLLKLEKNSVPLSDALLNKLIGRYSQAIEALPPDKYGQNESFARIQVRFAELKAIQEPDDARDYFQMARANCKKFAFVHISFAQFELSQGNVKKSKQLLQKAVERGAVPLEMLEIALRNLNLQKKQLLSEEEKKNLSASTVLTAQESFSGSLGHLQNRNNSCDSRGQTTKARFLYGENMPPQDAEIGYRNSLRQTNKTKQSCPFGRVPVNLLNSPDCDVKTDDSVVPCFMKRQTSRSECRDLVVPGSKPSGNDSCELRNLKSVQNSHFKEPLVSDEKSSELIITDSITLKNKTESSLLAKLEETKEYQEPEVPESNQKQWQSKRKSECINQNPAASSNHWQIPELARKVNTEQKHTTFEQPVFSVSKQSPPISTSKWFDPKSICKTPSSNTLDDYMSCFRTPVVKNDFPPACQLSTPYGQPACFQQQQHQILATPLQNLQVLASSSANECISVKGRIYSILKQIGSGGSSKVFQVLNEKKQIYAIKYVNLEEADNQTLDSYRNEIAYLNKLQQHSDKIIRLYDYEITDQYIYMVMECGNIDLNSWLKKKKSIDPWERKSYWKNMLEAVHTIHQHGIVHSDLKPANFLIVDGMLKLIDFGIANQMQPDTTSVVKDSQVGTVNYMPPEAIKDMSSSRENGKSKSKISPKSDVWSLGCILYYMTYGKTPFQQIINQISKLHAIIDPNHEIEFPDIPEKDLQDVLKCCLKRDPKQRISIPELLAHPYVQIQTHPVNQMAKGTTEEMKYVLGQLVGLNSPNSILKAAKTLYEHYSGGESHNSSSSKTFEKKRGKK
Experimental: To evaluate an inhibitory activity of the compound according to the present invention against TTK (MPS1), an experiment was performed as follows.
Each of the Example compounds was reacted with a purified human TTK (SignalChem #T20-10G) enzyme to evaluate an ability to inhibit an enzyme using a method as described below. A composition of 40 mM Tris-HCl (pH 7.4), 20 mM MgCl2, 0.5 mg/mL BSA, and 50 μM DTT was used as a reaction buffer, and all reactions of test substances were performed in the reaction buffer. […] In the test, purified ATP (10 μM) and an enzyme substrate (0.2 μg) were reacted with a human TTK (25 ng) enzyme at 25° C. for 2 hours, and the enzyme activity was determined using an in vitro ADP-Glo™ kinase assay (Promega). […] The degree of inhibition of the enzyme activity according to the treatment concentration of each of the compounds was calculated based on the fluorescence of the enzyme activity of the solvent control which was not treated with the compound.

SMILES | GI50 (MDA-MB-231 cells) [nM] | IC50 (TTK) [nM]
COc1cc(N2CCOC2=O)ccc1Nc1nc(NC2CCCCC2)c2c(C#N)c[nH]c2n1 [Example 3, 4-(cyclohexylamino)-2-((2-methoxy-4-(2-oxooxazolidin-3-yl)phenyl)amino)-7H-pyrrolo[2,3-d] pyrimidine-5-carbonitrile] | 100 to 1000 | < 50
C[C@@H](Oc1cc(C(=O)N(C)C)ccc1Nc1nc(O[C@H]2CC[C@@](C)(O)CC2)c2c(Cl)c[nH]c2n1)C(F)(F)F [Example 86, 4-((5-chloro-4-(((1s,4S)-4-hydroxy-4-methylcyclohexyl)oxy)-7H-pyrrolo[2,3-d]pyrimidin-2-yl)amino)-N,N-dimethyl-3-(((R)-1,1,1-trifluoropropan-2-yl)oxy)benzamide] | < 100 | < 50
CCCCNc1nc(Nc2ccc(N3CCCC3=O)cc2OC)nc2[nH]cc(C#N)c12 [Example 67, 4-(butylamino)-2-((2-methoxy-4-(2-oxopyrrolidin-1-yl)phenyl)amino)-7H-pyrrolo[2,3-d] pyrimidine-5-carbonitrile] | < 100 | < 50
COc1cc(-c2nccs2)ccc1Nc1nc(NC2CCCC2)c2c(C#N)c[nH]c2n1 [Example 17, 4-(cyclopentylamino)-2-((2-methoxy-4-(thiazol-2-yl)phenyl)amino)-7H-pyrrolo[2,3-d] pyrimidine-5-carbonitrile] | < 100 | 200 to 1000
N#Cc1c[nH]c2nc(Nc3ccc(-c4ccc(CN5CCN(C6CC6)CC5)cc4)cc3)nc(NC3CCCCC3)c12 [Example 22, 4-(cyclohexylamino)-2-((4′-((4-cyclopropylpiperazin-l-yl)methyl)-[1,1′-biphenyl]-4-yl)amino)-7H-pyrrolo[2,3-d] pyrimidine-5-carbonitrile] | 100 to 1000 | < 50
COCC(C)(C)Nc1nc(Nc2ccc(N3CCCC3=O)cc2OC)nc2[nH]cc(C#N)c12 [Example 72, 4-((1-methoxy-2-methylpropan-2-yl)amino)-2-((2-methoxy-4-(2-oxopyrrolidin-1-yl)phenyl)amino)-7H-pyrrolo[2,3-d] pyrimidine-5-carbonitrile] | 100 to 1000 | < 50
COc1cc(-c2ccc(F)nc2)ccc1Nc1nc(NC2CCCC2)c2c(C#N)c[nH]c2n1 [Example 42, 4-(cyclopentylamino)-2-((4-(6-fluoropyridin-3-yl)-2-methoxyphenyl)amino)-7H-pyrrolo[2,3-d] pyrimidine-5-carbonitrile] | < 100 | 50 to 200
COc1cc(N2CCCC2=O)ccc1Nc1nc(NC2CCC2)c2c(C#N)c[nH]c2n1 [Example 69, 4-(cyclobutylamino)-2-((2-methoxy-4-(2-oxopyrrolidin-1-yl)phenyl)amino)-7H-pyrrolo[2,3-d] pyrimidine-5-carbonitrile] | > 1000 | < 50
COc1cc(-c2nnc3n2CCC3)ccc1Nc1nc(NC2CCCCC2)c2c(C#N)c[nH]c2n1 [Example 31, 4-(cyclohexylamino)-2-((4-(6,7-dihydro-5H-pyrrolo[2,1-c] [1,2,4]triazol-3-yl)-2-methoxyphenyl)amino)-7H-pyrrolo[2,3-d] pyrimidine-5-carbonitrile] | < 100 | < 50
COc1cc(-c2ncn(C)n2)ccc1Nc1nc(NC2CCCCC2)c2c(C#N)c[nH]c2n1 [Example 27, 4-(cyclohexylamino)-2-((2-methoxy-4-(1-methyl-1H-1,2,4-triazol-3-yl)phenyl)amino)-7H-pyrrolo[2,3-d] pyrimidine-5-carbonitrile] | < 100 | < 50
COc1cc(-c2cnn(C)c2)ccc1Nc1nc(NC2CCCC2)c2c(C#N)c[nH]c2n1 [Example 43, 4-(cyclopentylamino)-2-((2-methoxy-4-(1-methyl-1H-pyrazol-4-yl)phenyl)amino)-7H-pyrrolo[2,3-d] pyrimidine-5-carbonitrile] | < 100 | < 50
CCCCNc1nc(Nc2ccc(-c3nncn3C)cc2OCC)nc2[nH]cc(C#N)c12 [Example 11, 4-(butylamino)-2-((2-ethoxy-4-(4-methyl-4H-1,2,4-triazol-3-yl)phenyl)amino)-7H-pyrrolo[2,3-d] pyrimidine-5-carbonitrile] | < 100 | < 50
COc1cc(-c2ccc(F)nc2)ccc1Nc1nc(NC2CCCCC2)c2c(C#N)c[nH]c2n1 [Example 24, 4-(cyclohexylamino)-2-((4-(6-fluoropyridin-3-yl)-2-methoxyphenyl)amino)-7H-pyrrolo[2,3-d] pyrimidine-5-carbonitrile] | < 100 | < 50
COc1cc(-c2c(C)noc2C)ccc1Nc1nc(NC2CCCC2)c2c(C#N)c[nH]c2n1 [Example 44, 4-(cyclopentylamino)-2-((4-(3,5-dimethylisoxazol-4-yl)-2-methoxyphenyl)amino)-7H-pyrrolo[2,3-d] pyrimidine-5-carbonitrile] | < 100 | 50 to 200

Second part, the compound after the results:

GI50 (MDA-MB-231 cells) [nM] | IC50 (TTK) [nM] | SMILES
< 100 | < 50 | CCC(C)Nc1nc(Nc2ccc(N3CCCC3=O)cc2OC)nc2[nH]cc(C#N)c12 (stereo in doubt) [Example 68, (S)-4-(sec-butylamino)-2-((2-methoxy-4-(2-oxopyrrolidin-1-yl)phenyl)amino)-7H-pyrrolo[2,3-d] pyrimidine-5-carbonitrile]
< 100 | < 50 | CC[C@@H](C)Nc1nc(Nc2ccc(-c3ccnn3C)cc2OC)nc2[nH]cc(C#N)c12 [Example 10, (R)4-(sec-butylamino)-2-((2-methoxy-4-(1-methyl-1H-pyrazol-5-yl)phenyl)amino)-7H-pyrrolo[2,3-d] pyrimidine-5-carbonitrile 2,2,2-trifluoroacetate]
> 1000 | < 50 | CNc1nc(Nc2ccc(-c3ccnn3C)cc2OC)nc2[nH]cc(C#N)c12 [Example 9, 2-((2-methoxy-4-(1-methyl-1H-pyrazol-5-yl)phenyl)amino)-4-(methylamino)-1H-pyrrolo[2,3-d] pyrimidine-5-carbonitrile]
< 100 | < 50 | CC(C)Nc1nc(Nc2ccc(-c3ccnn3C)c3c2OCCO3)nc2[nH]cc(C#N)c12 [Example 76, 4-(isopropylamino)-2-((8-(1-methyl-1H-pyrazol-5-yl)-2,3-dihydrobenzo[b][1,4]dioxin-5-yl)amino)-7H-pyrrolo[2,3-d] pyrimidine-5-carbonitrile]
100 to 1000 | 200 to 1000 | COc1cc(-c2ccnn2C)c(C)cc1Nc1nc(NC2CCCC2)c2c(C#N)c[nH]c2n1 [Example 35, 4-(cyclopentylamino)-2-((2-methoxy-5-methyl-4-(1-methyl-1H-pyrazol-5-yl)phenyl)amino)-7H-pyrrolo[2,3-d] pyrimidine-5-carbonitrile]
< 100 | < 50 | COc1cc(-c2ccn(C)n2)ccc1Nc1nc(NC2CCCC2)c2c(C#N)c[nH]c2n1 [Example 2, 4-(cyclopentylamino)-2-((2-methoxy-4-(1-methyl-1H-pyrazol-3-yl)phenyl)amino)-7H-pyrrolo[2,3-d] pyrimidine-5-carbonitrile]
